Values of other authors in US10952984B2, “All-trans retinoic acid injectant and application” (HIGHFIELD BIOPHARMACEUTICAL CORPORATION, priority 2016, dated 2021).
Converted amounts (≈) assume the structure as drawn.

Key:
[1] = not given; remark: listed apart in the source

CC1=C(/C=C/C(C)=C/C=C/C(C)=C/C(=O)O)C(C)(C)CCC1 [all-trans retinoic acid]
water solubility: 4.77 µg/mL (≈ 15.9 µM)
solubility of the all-trans retinoic acid in the prior art (prior art): 10 µg/mL
bioavailability ([1]; oral dosage forms, clinical studies): ≤ 30%
plasma half-life ([1]; prior art): short
